Test results as given in patent US20080213223A1, “Systemic viral/ligand gene delivery system and gene therapy” (SynerGene Therapeutics, Inc., priority 1998, published 2008).

Experiments:
[1] = tested on: MDA-MB-435 xenograft tumors; experiment: MDA-MB-435 xenograft tumor growth with docetaxel (Taxotere); type: in vivo, athymic nude (NCr nu-nu) mice; details: agent alone
Source text: Additionally, since chemotherapy is often the treatment of choice for breast cancer, this experiment tested the ability of the delivery system of this invention to sensitize established human breast cancer xenograft tumors to the commonly used chemotherapeutic agent docetaxel (Taxotere). Xenografts were induced in 4-6 week old female athymic nude (NCr nu-nu) mice by the subcutaneous injection of 2.5×10^6 MDA-MB-435 cells in the mammary fat pad of each animal. Tumors were allowed to develop to a size of 40-50 mm^3. The targeted adenovirus, designated Tf Adp53, was prepared by mixing transferrin with adenovirus carrying DNA encoding wt p53 as described in Example 1. The animals were divided into five groups: (i) Untreated (−) Taxotere; (ii) Taxotere alone, (iii) Untargeted Adp53 (+) Taxotere; (iv) Targeted Adp53 (−) Taxotere; (v) Targeted Adp53 (+) Taxotere. The mice were i.v. injected, via the tail vein, every three to four days with 5×10^10 pt/mouse/injection of either targeted (an admixture of Tf ligand and virus was injected) or untargeted (no ligand) Adp53. A total of 12 injections were administered. The day after the initial viral injection, drug treatment was started. The animals were given Taxotere i.v. at a dose of 7.5 mg/kg every three or four days to a total of 11 injections. The tumor sizes were measured weekly in a blinded manner on a total of 6-8 tumors/group. […]

[2] = tested on: B16 mouse melanoma lung metastases; experiment: B16 mouse melanoma lung metastases model with cisplatin; type: in vivo, C57/BL/6 mice; details: agent alone
Source text: FIGS. 5A-H. Chemosensitization of B16 mouse lung metastases to cisplatin (CDDP) by systemically delivered, tumor-targeted adenoviral-p53. The metastases were induced in normal, syngeneic C57/Bl/6 mice by the intravenous injection of 1×10^5 cells. Four days later treatment was begun. Tf-Adp53 and control Tf-AdLacZ were produced at the ratio of 1.5×10^5 Tf molecules/virion. 1×10^10 viral particles/mouse/injection (equivalent to 3×10^8 pfu) of either Adp53, Tf-Adp53 or Tf-AdLacZ were i.v. administered 3 times/week to a total of 12-13 doses. CDDP was intraperitoneally injected at 3-5 mg/kg every 2-4 days for a total of 8-13 doses. The lungs were excised from the animals after one round of treatment. Lungs from animal treated with: No treatment (FIGS. 5A and 5E); CDDP alone (FIG. 5B); untargetted Ad-p53 plus CDDP (FIG. 5C); Tf-LacZ plus CDDP (FIG. 5F); Tf-Adp53 alone (FIG. 5G); Tf-Adp53 plus CDDP (FIGS. 5D and 5H).
The ability of the ligand-targeted, viral p53 delivery system to sensitize tumor cells to chemotherapy in an immune competent animal model was examined. The model chosen for these studies was the B16 mouse melanoma lung metastases model. In multiple experiments, B16 cells were injected, via the tail vein into immune-competent C57/BL/6 mice. In this model, tumor colonies in the lung are easily visible within two-three weeks, due to the expression of melanin by the tumor cells. […]

Structure (SMILES): CC(=O)O[C@@]12CO[C@@H]1C[C@H](O)[C@@]1(C)C(=O)[C@H](O)C3=C(C)[C@@H](OC(=O)[C@H](O)[C@@H](NC(=O)OC(C)(C)C)c4ccccc4)C[C@@](O)([C@@H](OC(=O)c4ccccc4)[C@H]21)C3(C)C [Taxotere, docetaxel]
- effect on tumor growth [1]: some growth inhibition

Structure (SMILES): [NH2][Pt]([NH2])([Cl])[Cl] [CDDP, cisplatin]
- effect on lung tumor colonies compared to untreated animals [2]: some effect
